In PubChem BioAssay (NCI) one finds GI50 and TGI data, which are given here for 13 molecules.

Among the test systems are 786-0 renal; A498 renal; CAKI-1 renal; HT29 colon; LOX IMVI melanoma; NCI-H460 lung; SF-539 CNS; SK-MEL-2 melanoma; UACC-257 melanoma; NCI-H522 lung.
Common to all, as to assay: NCI-60 cell line screen, 48 h

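All cell lines were grown in 96-well plates and treated with compound for 48 hours. GI50 is the concentration that inhibits growth by half. Definition used: TGI = concentration required for complete inhibition of growth.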

Regarding `Cc1ccc(S(=O)(=O)Oc2ccc([N+](=O)[O-])cc2[N+](=O)[O-])cc1`, the GI50 was 3.83 µM in the assay on 786-0 renal; 11.8 µM in the assay with A498 renal; 2.03 µM with CAKI-1 renal; 3.63 µM in the assay on HT29 colon; 3.23 µM with LOX IMVI melanoma; 15.4 µM with NCI-H460 lung. Also, the figures for the GI50 in the assay with SF-539 CNS, in the assay with SK-MEL-2 melanoma and with UACC-257 melanoma were 4.54 µM, 4.31 µM and 2.77 µM, respectively. In addition, the TGI in the assay on 786-0 renal came out at 14.6 µM; with A498 renal, 24.9 µM; with CAKI-1 renal it was 4.27 µM; in the assay on HT29 colon it was 58.7 µM; in the assay on LOX IMVI melanoma it was 15 µM; in the assay with NCI-H460 lung, 39 µM. Also, the figures for the TGI with SF-539 CNS, in the assay with SK-MEL-2 melanoma and with UACC-257 melanoma were 18.2 µM, 16.6 µM and 12.2 µM, respectively.

For the molecule `O=c1c(-c2ccccc2)c2oc(c1-c1ccccc1)CS(=O)(=O)CCC2`, the TGI was 44.1 µM in the assay on 786-0 renal; 96.9 µM with CAKI-1 renal; 75.8 µM with HT29 colon; 45.8 µM in the assay with LOX IMVI melanoma; above 100 µM in the assay with NCI-H460 lung; 22.7 µM in the assay on NCI-H522 lung. The values for the TGI with SF-539 CNS, in the assay with SK-MEL-2 melanoma and in the assay on UACC-257 melanoma were 42.4 µM, above 100 µM and above 100 µM, respectively.

Regarding `COc1ccc(/C=N/N=C(\N)NO)c(Cl)c1O`, the TGI in the assay on 786-0 renal is above 100 µM; in the assay on CAKI-1 renal, 54.8 µM; with LOX IMVI melanoma it was above 100 µM; with NCI-H522 lung it was 42.1 µM; with SF-539 CNS, 46.5 µM; in the assay on SK-MEL-2 melanoma it was 70.6 µM. Moreover, the TGI in the assay with UACC-257 melanoma is above 100 µM.

In the case of `COC(=O)NC1(NC(=O)OC)NC(=O)c2cc(OC)c(OC)cc2N1`, the TGI in the assay with 786-0 renal is above 100 µM; with CAKI-1 renal, 61.9 µM; in the assay on LOX IMVI melanoma, above 100 µM; in the assay with NCI-H460 lung it was above 100 µM; in the assay with NCI-H522 lung, 80 µM; in the assay on SF-539 CNS it was 60.8 µM. Besides, the TGI was 67 µM with SK-MEL-2 melanoma and above 100 µM with UACC-257 melanoma.

In the case of `CCOC(=O)C1(C#N)C(c2ccccc2)CC(O)(c2ccc([N+](=O)[O-])cc2)C(C(=O)c2ccc([N+](=O)[O-])cc2)C1c1ccccc1` (centres undefined), the TGI in the assay on 786-0 renal, in the assay with CAKI-1 renal, in the assay with HT29 colon, in the assay with LOX IMVI melanoma, with NCI-H460 lung and in the assay with NCI-H522 lung was above 100 µM throughout. Besides, the TGI with SK-MEL-2 melanoma and with UACC-257 melanoma was above 100 µM in each case.

Consider `CC(C)N(C(=O)C1(C)CC1)C(C)C`, for which the TGI with 786-0 renal, in the assay with A498 renal, in the assay on CAKI-1 renal, in the assay on HT29 colon, in the assay on NCI-H522 lung and in the assay with SF-539 CNS was above 100 µM each time. Moreover, the TGI with SK-MEL-2 melanoma and in the assay with UACC-257 melanoma was above 100 µM throughout.

In the case of `CC(=O)[O-].CC(=O)[O-].O=C(N/N=C/c1cc(Cl)cc(Cl)c1O)c1ccncc1.[Ni+2]`, the TGI in the assay on 786-0 renal, in the assay on A498 renal, in the assay with HT29 colon, with LOX IMVI melanoma, in the assay on NCI-H460 lung and in the assay on NCI-H522 lung was above 100 µM each time. For the same molecule, the results for the TGI in the assay on SF-539 CNS, in the assay on SK-MEL-2 melanoma and with UACC-257 melanoma were above 100 µM, 87.4 µM and 96.6 µM, respectively. Also, in the assay with SK-MEL-2 melanoma, the GI50 is 46.6 µM.

Turning to `CCC(=O)C1(c2ccccc2)CCN(C)CC1`, the TGI with 786-0 renal, with A498 renal, in the assay with CAKI-1 renal, with HT29 colon, with NCI-H460 lung and in the assay on UACC-257 melanoma was above 100 µM throughout.

With `CCOC(CCCNCCCn1c2c(c3cc(OC)c(OC)cc3c1=O)C(=O)c1cc3c(cc1-2)OCO3)OCC`, the GI50 was 4.35 µM in the assay with 786-0 renal; 5.79 µM in the assay with A498 renal; 1.43 µM with CAKI-1 renal; 5.12 µM with HT29 colon; 1.73 µM in the assay with LOX IMVI melanoma; 0.884 µM in the assay with NCI-H460 lung. The GI50 was 5.34 µM in the assay with NCI-H522 lung, 7.59 µM in the assay with SK-MEL-2 melanoma and 7.21 µM with UACC-257 melanoma. Also, the TGI came to 10.6 µM in the assay on 786-0 renal; 12.1 µM with A498 renal; 7.61 µM with CAKI-1 renal; 10.9 µM in the assay with HT29 colon; 9.81 µM with LOX IMVI melanoma; 7.3 µM in the assay on NCI-H460 lung. Further, the TGI worked out at 11.3 µM in the assay with NCI-H522 lung, 14.2 µM with SK-MEL-2 melanoma and 13.7 µM with UACC-257 melanoma.

In the case of `CC(C)CC1C(=O)N2CCC[C@H]2C2(O)O[C@](NC(=O)C3C=C4c5cccc6[nH]c(Br)c(c56)C[C@H]4N(C)C3)(C(C)C)C(=O)N12` (some centres undefined), the GI50 in the assay on 786-0 renal was 25.7 µM; in the assay with A498 renal, 3.21 µM; in the assay with CAKI-1 renal, 2.81 µM; with LOX IMVI melanoma it was 21.6 µM; in the assay with NCI-H460 lung, 6.6 µM; with SK-MEL-2 melanoma it was 22.6 µM. The GI50 in the assay on UACC-257 melanoma is 16.7 µM. Further, the TGI in the assay on 786-0 renal, with A498 renal, in the assay on CAKI-1 renal, in the assay with HT29 colon, with LOX IMVI melanoma and in the assay on NCI-H460 lung was above 100 µM in each case. For the same molecule, the TGI with SF-539 CNS, with SK-MEL-2 melanoma and in the assay with UACC-257 melanoma was above 100 µM each time.

As to `CCCCCCCCCCCCCCCCOCC(CN(C)CCN(C)C)OCCCCCCCCCCCCCCCC` (centres undefined), the TGI with 786-0 renal, in the assay with A498 renal, in the assay on CAKI-1 renal, in the assay with HT29 colon, in the assay with LOX IMVI melanoma and in the assay with NCI-H460 lung was above 100 µM throughout. In addition, the TGI in the assay on NCI-H522 lung, in the assay with SK-MEL-2 melanoma and in the assay with UACC-257 melanoma was above 100 µM throughout.

Turning to `N#CC(/C(=N\NC(=O)c1ccncc1)C(=O)Nc1ccc([N+](=O)[O-])cc1[N+](=O)[O-])c1nc(-c2ccc(Br)cc2)cs1` (centres undefined), the TGI in the assay with 786-0 renal, in the assay with A498 renal, in the assay on CAKI-1 renal, with LOX IMVI melanoma, in the assay on NCI-H460 lung and in the assay with SF-539 CNS was above 100 µM in each case. The TGI in the assay with SK-MEL-2 melanoma and in the assay with UACC-257 melanoma was above 100 µM in each case.

In the case of `C=CCCCn1ccc2ccccc21`, the TGI in the assay with 786-0 renal, in the assay on A498 renal, with HT29 colon, with LOX IMVI melanoma, in the assay with NCI-H460 lung and with NCI-H522 lung was above 100 µM each time. The TGI in the assay on SF-539 CNS, in the assay on SK-MEL-2 melanoma and with UACC-257 melanoma was above 100 µM in each case.
